Data from PubChem BioAssay (NCI).
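Protocol summary: plate cells (96-well), add compound at 5 concentrations, incubate 48 h, interpolate endpoints linearly. GI50: concentration for 50% inhibition of growth. TGI is the concentration that stops growth completely.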

Tests used:
Test in all cases: NCI anticancer screen, dose series, 48 h
NCI-H460 lung = system: NCI-H460 lung
RXF 393 renal = system: RXF 393 renal
SNB-19 CNS = system: SNB-19 CNS
OVCAR-5 ovarian = system: OVCAR-5 ovarian
SR leukemia = system: SR leukemia
HOP-92 NSCLC = system: HOP-92 NSCLC
SK-OV-3 ovarian = system: SK-OV-3 ovarian
MCF7 breast = system: MCF7 breast
DU-145 prostate = system: DU-145 prostate
SF-539 CNS = system: SF-539 CNS

Compound | TGI (NCI-H460 lung) | TGI (RXF 393 renal) | TGI (SNB-19 CNS) | TGI (OVCAR-5 ovarian) | TGI (SR leukemia) | TGI (HOP-92 NSCLC) | TGI (SK-OV-3 ovarian) | TGI (MCF7 breast) | TGI (DU-145 prostate) | TGI (SF-539 CNS) | GI50 (NCI-H460 lung) | GI50 (MCF7 breast) | GI50 (DU-145 prostate) | GI50 (SNB-19 CNS) | GI50 (OVCAR-5 ovarian) | GI50 (SR leukemia) | GI50 (HOP-92 NSCLC) | GI50 (SF-539 CNS) | GI50 (SK-OV-3 ovarian) | GI50 (RXF 393 renal)
COC(=O)C1CSC(c2csc(CCN)n2)=N1 (configuration not stated) | > 100 µM | > 100 µM | > 100 µM | > 100 µM | > 100 µM | > 100 µM | > 100 µM | – | – | – | – | – | – | – | – | – | – | – | – | –
O=Cc1cccc2ccc3ccccc3c12 | 57.8 µM | 61 µM | 65.5 µM | – | – | – | 46.5 µM | 37.4 µM | > 100 µM | 23 µM | – | – | – | – | – | – | – | – | – | –
NC1N=Nc2ccccc21 (configuration not stated) | > 100 µM | > 100 µM | > 100 µM | > 100 µM | > 100 µM | > 100 µM | > 100 µM | – | – | > 100 µM | – | – | – | – | – | – | – | – | – | –
CC1=NN(C(=O)Cc2ccccc2)C(=O)/C1=C\c1ccc([N+](=O)[O-])cc1 | > 100 µM | > 100 µM | > 100 µM | > 100 µM | – | 9.82 µM | > 100 µM | – | – | > 100 µM | – | – | – | – | – | – | – | – | – | –
O=C(NC(=Nc1ccccc1)SCSC(=Nc1ccccc1)NC(=O)c1ccco1)c1ccco1 | > 100 µM | 55 µM | 79.1 µM | > 100 µM | – | 53.7 µM | – | – | – | 59.1 µM | – | – | – | – | – | – | – | – | – | –
Cc1cc(=O)oc2cc(OCCCOc3ccc4c(C)cc(=O)oc4c3)ccc12 | > 100 µM | > 100 µM | > 100 µM | – | > 100 µM | – | – | – | – | > 100 µM | – | – | – | – | – | – | – | – | – | –
O=C(Cc1ccccc1[N+](=O)[O-])C(CO)c1ccccc1[N+](=O)[O-] (configuration not stated) | > 100 µM | > 100 µM | > 100 µM | > 100 µM | – | 93.3 µM | > 100 µM | – | – | > 100 µM | – | – | – | – | – | – | – | – | – | –
C[C@@H](N)COc1ccc(-c2cnc3ccc(N[C@H](C)c4cccc(F)c4)nn23)cc1 | 3.88 µM | – | 11.6 µM | 4.54 µM | 1.8 µM | 1.89 µM | 16.9 µM | 2.69 µM | 11.4 µM | 2.86 µM | 1.75 µM | 1.24 µM | 3.01 µM | 3 µM | 1.38 µM | 0.0715 µM | 0.338 µM | 1.52 µM | 5.05 µM | –
Cc1ccc([P+](Cc2ccccc2)(c2ccccc2)c2ccccc2)cc1 | 10.5 µM | 41.1 µM | > 100 µM | > 100 µM | 16.5 µM | – | > 100 µM | > 100 µM | > 100 µM | 50.9 µM | 2.33 µM | 1.92 µM | 3.62 µM | 2.81 µM | 3.42 µM | 2.66 µM | – | 3.03 µM | 4.1 µM | 3.68 µM
C/C(CCn1[nH]c(=O)ccc1=O)=N\NC(=O)C(N)=O | > 100 µM | > 100 µM | > 100 µM | > 100 µM | – | > 100 µM | – | – | – | > 100 µM | – | – | – | – | – | – | – | – | – | –
O=C(O)CN(c1ccccc1)S(=O)(=O)c1cccc([N+](=O)[O-])c1 | > 100 µM | > 100 µM | > 100 µM | > 100 µM | – | > 100 µM | > 100 µM | – | – | > 100 µM | – | – | – | – | – | – | – | – | – | –
c1ccc2c(c1)SC(=C1Sc3ccccc3S1)S2 | > 100 µM | > 100 µM | > 100 µM | – | – | > 100 µM | > 100 µM | – | – | – | – | – | – | – | – | – | – | – | – | –
Fc1cc(F)c(F)c(S)c1F | > 100 µM | 54.8 µM | > 100 µM | > 100 µM | – | > 100 µM | > 100 µM | > 100 µM | > 100 µM | > 100 µM | – | – | – | – | – | – | – | – | – | –
CC(=O)c1ccccc1NC(=O)C(=O)C(C(=O)c1ccc2ccccc2c1)C1OC(=O)c2ccccc21 (configuration not stated) | > 100 µM | – | 35.3 µM | 52.9 µM | – | 41.1 µM | > 100 µM | – | – | 22.1 µM | – | – | – | – | – | – | – | – | – | –
COc1ccc(Nc2nc3cc(C(F)(F)F)ccc3nc2-c2ccccc2)cc1OC | > 100 µM | 35.9 µM | – | > 100 µM | > 100 µM | 9.1 µM | 66.5 µM | – | – | > 100 µM | – | – | – | – | – | – | – | – | – | –
CC(C)OP(=S)(NC(=S)c1ccccc1)OC(C)C | > 100 µM | – | > 100 µM | > 100 µM | – | > 100 µM | > 100 µM | – | – | > 100 µM | – | – | – | – | – | – | – | – | – | –
O=C([O][Hg][c]1ccccc1)c1ccccc1 | 9.27 µM | 2.56 µM | 8.7 µM | 5.56 µM | 2.35 µM | 2.72 µM | 11.9 µM | – | 4.13 µM | 3.26 µM | 2.6 µM | – | 1.95 µM | 3.32 µM | 2.48 µM | 0.382 µM | 1.35 µM | 1.58 µM | 4.03 µM | 1.24 µM
COc1ccc2c(c1)[n+]([O-])c(-c1cccc(Cl)c1)c(N)[n+]2[O-] | > 100 µM | > 100 µM | > 100 µM | > 100 µM | > 100 µM | > 100 µM | > 100 µM | – | – | > 100 µM | – | – | – | – | – | – | – | – | – | –
CC1(C)NC(=O)N(CCCCCCN2C(=O)NC(C)(C)C2=O)C1=O | > 100 µM | > 100 µM | > 100 µM | > 100 µM | – | > 100 µM | > 100 µM | – | – | – | – | – | – | – | – | – | – | – | – | –
COc1cc2c3c(n(CCCN4CCNCC4)c(=O)c2cc1OC)-c1cc2c(cc1C3=O)OCO2 | 2.07 µM | 4.89 µM | 12.4 µM | 6.77 µM | – | 1.28 µM | 24.8 µM | 7.66 µM | 1.02 µM | 0.355 µM | 0.00951 µM | 0.0119 µM | 0.0439 µM | 0.835 µM | 1.75 µM | – | 0.041 µM | 0.0399 µM | 3.35 µM | 0.811 µM
CNS(=O)(=O)OCC1OC(n2cnc3cncnc32)C(O)C1O (configuration not stated) | > 100 µM | > 100 µM | > 100 µM | > 100 µM | – | > 100 µM | > 100 µM | > 100 µM | > 100 µM | > 100 µM | > 100 µM | > 100 µM | > 100 µM | > 100 µM | > 100 µM | – | > 100 µM | > 100 µM | > 100 µM | > 100 µM
